Key:
[1] = target: MNK2a (pre-activated GST-MNK2a) (Homo sapiens (Human), UniProt Q9HBH9); test: MNK2a in vitro kinase assay (assay 1), ADP-Glo; assay type: biochemical; conditions: read-out: Mnk2 IC50
Procedure: A. MNK2a In Vitro Kinase Assay (Assay 1)
The inhibition of kinase activity of MNK2a was assessed using pre-activated GST-MNK2a. The white, 384-well OptiPlate F plates were purchased from PerkinElmer. The ADP-Glo Kinase Assay (including ultra pure ATP) was purchased from Promega (V9103). Activated MNK2a was obtained as described in WO2011/104340. […] ID No. 5 of WO 2011/104340 by the C-terminal —CONH2 group, was purchased from Thermo Fisher Scientific. All other materials were of highest grade commercially available. Compounds are tested in either serial dilutions or single dose concentrations. The compound stock solutions are 10 mM in 100% DMSO The serial compound dilutions are prepared in 100% DMSO followed by 1:27.3 intermediate dilution in assay buffer. The final DMSO concentration in assay will be <3%.
In the 384-well plates 3 μl of test compound from the intermediate dilution is mixed with 4 μl of the activated MNK2 enzyme (final concentration of 10 nM) and 4 μl of the peptide (final concentration of 25 μM)/ultra pure ATP (final concentration of 20 μM), all dissolved in assay buffer. This step is followed by an incubation time of 90 min, then 10 μl of ADP Glo reagent are added, followed by 40 min of incubation. Then 20 μl of kinase detection reagent are admixed. The plates are sealed and after an incubation period of 30 min, the luminescence signal is measured in an Envision reader to determine the amount of produced ADP. All incubation steps are performed at room temperature.
The assay buffer consists of 20 mM HEPES, 2 mM DTT, 0.01% BSA, 20 mM MgCl2 and 0.1% Pluronic F-127.
The luminescent signal generated is proportional to the ADP concentration produced and is correlated with activated MNK2 activity. The analysis of the data is performed by the calculation of the percentage of ATP consumption of activated MNK2 in the presence of the test compound compared to the consumption of ATP in the presence of activated MNK2 without compound. (RLU(sample)−RLU(low control))*100/(RLU(high value)−RLU(low control))
[RLU=Relative Luminescence Units]
Values of more than 100% CTL are normally related to compound/sample specific physico-chemical properties (e.g. solubility, light absorbance, fluorescence).
IC50 values based on dose response curves are calculated with the AssayExplorer software.

[2] = target: MNK1a (pre-activated GST-MNK1a) (Homo sapiens (Human), UniProt Q9BUB5); test: MNK1 in vitro kinase assay (assay 2), Z'-LYTE; assay type: biochemical; conditions: for inhibition at 1 µM: compound concentration of 1 μM, read-out: Mnk1 % Inh
Chain of MNK1a (pre-activated GST-MNK1a) (Q9BUB5 other isoform, or with tags, fused parts or gaps): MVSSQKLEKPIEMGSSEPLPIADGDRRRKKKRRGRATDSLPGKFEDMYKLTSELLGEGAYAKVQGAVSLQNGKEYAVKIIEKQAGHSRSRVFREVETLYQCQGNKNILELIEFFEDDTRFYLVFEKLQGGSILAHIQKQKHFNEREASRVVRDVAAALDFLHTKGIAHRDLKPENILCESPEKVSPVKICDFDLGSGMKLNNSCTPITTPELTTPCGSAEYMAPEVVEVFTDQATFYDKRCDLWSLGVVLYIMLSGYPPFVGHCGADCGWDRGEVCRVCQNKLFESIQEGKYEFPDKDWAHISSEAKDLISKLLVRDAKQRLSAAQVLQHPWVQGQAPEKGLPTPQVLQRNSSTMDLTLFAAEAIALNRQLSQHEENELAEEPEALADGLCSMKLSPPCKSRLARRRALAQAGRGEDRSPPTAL
Source text: B. MNK1 In Vitro Kinase Assay (Assay 2)
MNK1 Data can be obtained from the MNK1 Z′-LYTE® assay. The MNK1 Z′-LYTE® screening protocol and assay conditions are also described on www.invitrogen.com.
The assay is described as follows:
The Z′-LYTE® biochemical assay employs a fluorescence-based, coupled-enzyme format and is based on the differential sensitivity of phosphorylated and non-phosphorylated peptides to proteolytic cleavage. The peptide substrate is labeled with two fluorophores—one at each end—that make up a FRET pair.
In the primary reaction, the kinase transfers the gamma-phosphate of ATP to a single tyrosine, serine or threonine residue in a synthetic FRET-peptide. In the secondary reaction, a site-specific protease recognizes and cleaves non-phosphorylated FRET-peptides. Phosphorylation of FRET-peptides suppresses cleavage by the Development Reagent. Cleavage disrupts FRET between the donor (i.e., coumarin) and acceptor (i.e., fluorescein) fluorophores on the FRET-peptide, whereas uncleaved, phosphorylated FRET-peptides maintain FRET. A ratiometric method, which calculates the ratio (the Emission Ratio) of donor emission to acceptor emission after excitation of the donor fluorophore at 400 nm, is used to quantitate reaction progress, as shown in the equation below. Emission Ratio=Coumarin Emission(445 nm)/Fluorescein Emission(520 nm)
The inhibition of kinase activity of MNK1a was assessed using pre-activated GST-MNK1a. The 2×MKNK1 (MNK1) mixture is prepared in 50 mM HEPES pH 7.5, 0.01% BRIJ-35, 10 mM MgCl2, 4 mM MnCl2, 1 mM EGTA, 2 mM DTT. The final 10 μL Kinase Reaction consists of 13.5-54 ng MKNK1 (MNK1) and 2 μM Ser/Thr 07 in 50 mM HEPES pH 7.5, 0.01% BRIJ-35, 10 mM MgCl2, 2 mM MnCl2, 1 mM EGTA, 1 mM DTT. After the 1 hour Kinase Reaction incubation, 5 μL of a 1:32768 dilution of Development Reagent A is added.
The Test Compounds are screened in 1% DMSO (final) in the well.
All Peptide/Kinase Mixtures are diluted to a 2×working concentration in the MNK1 Kinase Buffer.
All ATP Solutions are diluted to a 4×working concentration in Kinase Buffer (50 mM HEPES pH 7.5, 0.01% BRIJ-35, 10 mM MgCl2, 1 mM EGTA).
Development Reagent Solution:
The Development Reagent is diluted in Development Buffer
Bar-coded Corning, low volume NBS, 384-well plate (Corning Cat. #3676)
1. 2.5 μL—4×Test Compound
2. 5 μL—2×Peptide/Kinase Mixture
5. 60-minute Kinase Reaction incubation at room temperature
6. 5 μL—Development Reagent Solution
8. 60-minute Development Reaction incubation at room temperature
9. Read on fluorescence plate reader and analyze the data
The following equations are used for each set of data points:
Correction for Background Fluorescence: FISample−FITCFI Ctl Emission Ratio (using values corrected for background fluorescence):Coumarin Emission (445 nm)/Fluorescein Emission (520 nm)
% Phosphorylation (% Phos): 1−((Emission Ratio×F100%)−C100%)/((C0%−C100%)+[Emission Ratio×(F100%−F0%)])*100
% Inhibition: 1−(% PhosSample/% Phos0% Inhibition Ctl)*100 FI=Fluorescence Intensity C100%=Average Coumarin emission signal of the 100% Phos. Control C0%=Average Coumarin emission signal of the 0% Phos. Control F100%=Average Fluorescein emission signal of the 100% Phos. Control F0%=Average Fluorescein emission signal of the 0% Phos. Control
SelectScreen® Kinase Profiling Service uses XLfit from IDBS. The dose response curve is curve fit to model number 205 (sigmoidal dose-response model).

Chain of MNK2a (pre-activated GST-MNK2a) (Q9HBH9 whole entry): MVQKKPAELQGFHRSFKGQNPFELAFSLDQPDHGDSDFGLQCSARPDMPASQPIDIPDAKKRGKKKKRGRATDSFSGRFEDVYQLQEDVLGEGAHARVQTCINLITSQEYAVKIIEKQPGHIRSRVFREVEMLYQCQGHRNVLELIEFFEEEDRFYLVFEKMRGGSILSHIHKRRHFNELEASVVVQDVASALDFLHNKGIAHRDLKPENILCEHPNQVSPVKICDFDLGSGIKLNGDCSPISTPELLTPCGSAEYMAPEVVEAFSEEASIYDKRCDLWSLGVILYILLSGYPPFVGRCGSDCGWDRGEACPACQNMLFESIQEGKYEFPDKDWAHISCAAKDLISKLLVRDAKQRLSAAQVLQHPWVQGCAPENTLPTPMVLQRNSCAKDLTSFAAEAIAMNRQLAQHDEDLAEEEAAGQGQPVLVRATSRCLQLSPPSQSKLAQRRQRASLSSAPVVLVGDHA

IC50 [1] [nM]	IC50 [2] [nM]	inhibition at 1 µM [2] [%]	SMILES
0.8	18	–	COc1c(N=S(C)(C)=O)cc2ncnc(Nc3ccc(F)cc3O[C@@H]3CO[C@@H]4CCO[C@@H]43)c2c1C [Example 2.25]
1.4	41	–	COc1c(N=S2(=O)CCCC2)cc2ncnc(Nc3ccc(F)cc3O[C@H]3CC[C@H](O)CC3)c2c1C [Example 2.44]
1.9	33	–	COc1c(N=S2(=O)CCC2)cc2ncnc(Nc3cccnc3O[C@@H]3CO[C@@H]4CCO[C@@H]43)c2c1C [Example 2.21]
1	64	–	COc1c(N=S2(=O)CCC2)cc2ncnc(Nc3ccc(F)cc3O[C@@H]3CO[C@H]4[C@@H]3OC[C@@H]4F)c2c1C [Example 2.26]
1.4	28	–	COc1c(N=S(C)(C)=O)cc2ncnc(Nc3ccc(F)cc3O[C@H](C)C(=O)NCC(F)(F)F)c2c1Cl [Example 2.47]
4.1	65	–	Cc1c(OCCN2CCN(C)C(=O)C2)c(N=S(C)(C)=O)cc2ncnc(Nc3ccc(F)cc3O[C@H](C)C(F)(F)F)c12 [Example 2.32]
1.2	18	–	COc1c(N=S2(=O)CCC2)cc2ncnc(Nc3ccc(F)cc3O[C@@H]3CO[C@H]4[C@@H]3OC[C@H]4O)c2c1C [Example 2.06]
2.4	66	–	COc1c(N=S2(=O)CCC2)cc2ncnc(Nc3ccc(Cl)cc3O[C@H](C)C(=O)NCC(F)(F)F)c2c1C [Example 2.39]
3.3	180	–	Cc1c(OCC2CC2)c(N=S(C)(C)=O)cc2ncnc(Nc3ccc(F)cc3O[C@H](C)C(F)(F)F)c12 [Example 3.01]
2	–	105	COc1c(N=S(C)(=O)CCO)cc2ncnc(Nc3ccc(F)cc3O[C@@H]3CO[C@@H]4CCO[C@@H]43)c2c1C (some centres unmarked) [Example 2.23]
1.8	14	–	COc1c(N=S2(=O)CCCC2)cc2ncnc(Nc3ccc(F)cc3O[C@@H]3CO[C@H]4[C@@H]3OC[C@H]4O)c2c1C [Example 2.09]
1.4	–	107	COc1c(N=S2(=O)CCCCC2)cc2ncnc(Nc3ccc(F)cc3O[C@@H]3CO[C@@H]4CCO[C@@H]43)c2c1C [Example 2.08]
2.3	–	95	COc1c(N=S(C)(=O)C2CCOCC2)cc2ncnc(Nc3ccc(F)cc3O[C@@H]3CO[C@@H]4CCO[C@@H]43)c2c1C (some centres unmarked) [Example 2.12]
6.5	282	–	Cc1c(OC(C)C)c(N=S(C)(C)=O)cc2ncnc(Nc3ccc(F)cc3O[C@H](C)C(F)(F)F)c12 [Example 3.03]
2.1	–	94	COc1c(N=S2(=O)CCOCC2)cc2ncnc(Nc3ccc(F)cc3O[C@@H]3CO[C@@H]4CCO[C@@H]43)c2c1C [Example 2.17]
1.7	17	–	COc1c(N=S(C)(C)=O)cc2ncnc(Nc3ccc(F)cc3O[C@@H]3CO[C@H]4[C@@H]3OC[C@H]4OC)c2c1C [Example 2.45]

IC50 [1] [nM]	IC50 [2] [nM]	inhibition at 1 µM [2] [%]	SMILES
2.7	–	–	COc1c(N=S2(=O)CCC2)cc2ncnc(Nc3ccc(F)cc3O[C@H]3COC[C@@H]3O)c2c1C [Example 2.07]
1.6	–	104	COc1c(N=S2(=O)CCCC2)cc2ncnc(Nc3ccc(F)cc3O[C@@H]3CO[C@H]4[C@@H]3OC[C@H]4OC)c2c1Cl [Example 2.55]
1.6	–	105	COc1c(N=S2(=O)CCC2)cc2ncnc(Nc3ccc(F)cc3O[C@H](C)C(=O)N[C@@H](C)C(F)(F)F)c2c1C [Example 2.53]
1.2	–	105	COc1c(N=S2(=O)CCC(O)CC2)cc2ncnc(Nc3ccc(F)cc3O[C@@H]3CO[C@@H]4CCO[C@@H]43)c2c1C (some centres unmarked) [Example 2.04]
2.3	–	100	COc1c(N=S2(=O)CCCC2)cc2ncnc(Nc3ccc(F)cc3O[C@H](C)C(=O)NCC(F)(F)F)c2c1C [Example 2.52]
1.9	56	–	COc1c(N=S2(=O)CCC2)cc2ncnc(Nc3ccc(F)cc3O[C@H](C)C(=O)NCC(F)(F)F)c2c1C [Example 2.11]
4.4	–	100	COc1c(N=S(C)(C)=O)cc2ncnc(Nc3ccc(F)cc3O[C@H](C)C(=O)NCC(F)(F)F)c2c1C [Example 2.24]
2.2	–	–	COc1c(N=S(C)(C)=O)cc2ncnc(Nc3ccc(F)cc3O[C@@H]3CO[C@H]4[C@@H]3OC[C@H]4OC)c2c1Cl [Example 2.28]
1.3	16	–	COc1c(N=S(C)(C)=O)cc2ncnc(Nc3ccc(F)cc3O[C@@H]3CO[C@@H]4CCO[C@@H]43)c2c1Cl [Example 2.40]
3.5	–	102	COc1c(N=S(C)(C)=O)cc2ncnc(Nc3ccc(F)cc3O[C@H](C)C(F)(F)F)c2c1C [Example 2.16]
6.9	–	77	Cc1c(O)c(N=S(C)(C)=O)cc2ncnc(Nc3ccc(F)cc3O[C@H](C)C(F)(F)F)c12 [Example 2.51]
1.3	–	95	COc1c(N=S2(=O)CCC2)cc2ncnc(Nc3ccc(F)cc3O[C@@H]3CO[C@H]4[C@@H]3OC[C@H]4OC)c2c1Cl [Example 2.18]
1.4	42	–	Cc1c(OCCCN2CCOCC2)c(N=S2(=O)CCC2)cc2ncnc(Nc3ccc(F)cc3O[C@H](C)C(F)(F)F)c12 [Example 2.15]
1.6	54	–	CCOc1c(N=S(C)(C)=O)cc2ncnc(Nc3ccc(F)cc3O[C@H](C)C(F)(F)F)c2c1C [Example 1.03]
2.4	–	–	Cc1c(OCCN2CCOCC2)c(N=S(C)(C)=O)cc2ncnc(Nc3ccc(F)cc3O[C@H](C)C(F)(F)F)c12 [Example 1.04]
